This note sets out measurements from a melting point compilation (Tetko et al.; mined from patent text by program, amines drawn as free bases though some values may be those of a salt).

SMILES strings stand for the structures.

As usually defined, the melting point is the temperature of the solid-liquid transition. Molecule `O=C(O)C1=Cc2cc(C(=O)c3ccccc3)ccc2OC1C(F)(F)F` (configuration not stated) registered a melting point of 270 to 271 °C.

Turning to `CCOP(=O)(/C=C/c1cn(-c2ccccc2)nc1OCc1ccc(OCc2nc(N3CCCCC3)sc2C)c(OC)c1)OCC`, the melting point was in the range of 95 to 96 °C. `Cc1sc2c(c1C)C(c1ccc(Cl)cc1)=NC(CC(=O)Nc1ccncc1)c1nnc(C)n1-2` (configuration not stated) registered a melting point of 237 to 239 °C. The figure for `O=C1c2cccc3cccc(c23)C(=O)N1CCCCN1CCC(O)(c2ccccc2)CC1` is 138 to 139 °C. In the case of `C=CCc1c(OCc2ccccc2)ccc2c(=O)ccoc12` it was 90 to 92 °C. In the case of `NC(=O)/C=C1/c2cc(F)ccc2C(O)C1O` (configuration not stated) it was 212 to 220 °C; in that of `CCOC(=O)[C@H](Cc1cccc(OS(=O)(=O)C(F)(F)F)c1)NC(=O)C(F)(F)F`, 38 to 39 °C; in that of `COc1ccc(CCc2c(Cl)cncc2Cl)c2cc(C#N)nn12`, 208 to 209 °C. Consider `CC1(C)COc2cc3c(cc21)C1(CO3)CN(Cc2ccccn2)c2ccccc21` (configuration not stated), for which the melting point was 145 to 147 °C. The figure for `Cc1cc(C)c(C=CC#N)c(Br)c1` is 95 to 96 °C. In the case of `CS(=O)(=O)c1ccc(-c2cnn(C3CCCCC3)c(=O)c2-c2ccc(F)cc2)cc1` it was 169 to 171 °C; in that of `CCc1c(CO)oc2ccc(Br)cc12`, 93 to 94 °C. In the case of `NC(=O)C1=CCCc2cc(Sc3ccccc3)cc(F)c21` it was 224 to 226 °C. Molecule `O=C(Nc1ccc(-n2nc(C(F)(F)F)cc2C(F)(F)F)cc1)c1ccc(F)c(Cl)c1` gave a melting point of 138 to 139 °C.

`O=C1CCN(C(=O)Cl)c2ccc(Cl)cc21` came in with a melting point of 114 to 116 °C. The figure for `CC(=O)NC(C)(C)c1ccc(CO)cc1` is 126 to 129 °C; for `O=C(O)C1=Nc2ccc3c(c2=C1)=CCO3` it is 183 to 184 °C; for `Cc1cc(-n2cncn2)c2cccc(OCc3c(Cl)ccc(S(=O)(=O)N4CCC[C@H]4C(=O)NCCN(C)C)c3Cl)c2n1` it is 106 °C.

Turning to `COc1ccc(NC(=O)c2ccc(-c3ccc(-c4noc(C)n4)cc3C)cc2)cc1C=CCN(C)C`, the melting point lay in the range of 220 to 221 °C. As for `C[C@H](CSC(=O)C(C)(C)C)C(=O)N(CC(=O)OC(C)(C)C)C1CCCC1`, the melting point worked out at 58 °C. In the case of `O=C(O)c1ccc(Cl)cc1C(=O)NCCCCc1cccnc1` it was 152 to 154 °C; in that of `CCN(C(=O)NC)c1nnc(C(C)(C)C)s1`, 112 °C.

`O=C(c1ccc(-c2ccccc2)cc1)C1CCN(CCc2c[nH]c3ccccc23)CC1` registered a melting point of 189 to 192 °C. The figure for `COc1cccc(C=CC(=O)CC(=O)C=Cc2cccc(OC)c2OC)c1OC` is 117 to 120 °C. In the case of `Oc1cccnc1Oc1cccc(Cl)c1` it was 109 to 110 °C; in that of `N#Cc1cccc(-n2c(=O)c(C(=O)Cc3ccccc3)c(O)c3cccnc32)c1`, 216 to 218 °C; in that of `C1=C(c2nc(COc3ccc(CCCn4ccnc4)cc3)co2)CCc2ccccc21`, 99 to 100 °C. The figure for `COc1ccccc1N1CCN(CCn2c(=O)c3ccsc3n(C)c2=O)CC1` is 174 to 176 °C. For the molecule `CCc1ccc2[nH]c(C(=O)OCc3ccccc3)cc2c1`, the melting point was 99 °C. The figure for `CCCCNS(=O)(=O)CC(O)C(O)C(CC1CCCCC1)NC(=O)CC(CC)c1c[nH]cn1` (configuration not stated) is 60 to 90 °C; for `CSc1ncc(CNc2ccccc2Cl)c(Nc2ccccc2)n1` it is 131 to 132 °C; for `Cn1cc(-c2cc(-c3cnc4ccccc4c3)ccn2)n(-c2ccc(C(C)(C)C(N)=O)cc2)c1=O` it is 259 °C. The figure for `O=c1[nH]c2cc(I)ccc2n(CP(=O)(O)O)c1=O` is 295 to 297 °C; for `Cc1cscc1NC(=S)Nc1cc(C(F)(F)F)cc(Cl)c1N` it is greater than 310 °C; for `CN(C)C1CC=C(c2c[nH]c3ccc([N+](=O)[O-])cc23)CC1` (configuration not stated) it is 234 to 236 °C.

For the molecule `O=C1C(c2ccccc2)=C(c2ccccc2)C(=O)N1CC(=O)N1c2ccccc2N(Cc2ccccc2)C(=O)C2CCCC21` (configuration not stated), the melting point is 207 to 208 °C. The molecule `CCc1nnc2c(NC(C)=O)nc3ccccc3n12` came in with a melting point of 193 to 195 °C. Consider `CC(C)=CC(=O)N[C@H]1CC[C@H](CCN2CCN(c3nccc4c3OCC4)CC2)CC1`, for which the melting point turned out to be 184 °C. The figure for `O=C(O)CON=C(c1ccccc1)c1cc2ccncc2[nH]1` is 68 to 73 °C; for `O=S(=O)(c1ccc(Cl)cc1)C(c1ccncc1)C1CCOCC1` (configuration not stated) it is 208 to 209 °C. The molecule `CCOc1nn(-c2ccc(C(F)(F)F)cn2)cc1CCCOc1cc(OC)ccc1CC(=O)O` yielded a melting point of 147 to 148 °C. In the case of `NCC(O)C1=CC2(CC2)c2ccccc21` (configuration not stated) it was 133 to 134 °C; in that of `Cn1cc(-c2ccccc2)c(=S)c(-c2ccccc2)c1`, 168 to 171 °C.

Molecule `O=C1c2ccc(C(F)(F)F)cc2C(=O)c2cc3ccccc3cc21` yielded a melting point of 253 to 254 °C. The molecule `CN1C(=O)C(=O)c2cccnc21` returned a melting point of 162 to 163 °C.

`O=C(COc1ccc2ccc(=O)oc2c1)c1ccccc1` came in with a melting point of 163 to 165 °C. Consider `Cc1nc2cc(C(=O)NC3CC3)c(NC(=O)c3cc(C(F)(F)F)nn3-c3ncccc3Cl)c(Cl)c2n1C`, for which the melting point was in the range of 233 to 235 °C.

In turn, `CN1c2ccccc2C(C#N)c2ccccc21` returned a melting point of 141 to 143 °C. In turn, `NC(=S)N1c2ccccc2C=Cc2ccccc21` registered a melting point of 192 to 194 °C. In the case of `CC1Cc2c(cc(C(C)(C)C)c(O)c2C(C)(C)C)S1` (configuration not stated) it was 96.7 °C; in that of `CCOC(=O)Nc1cccc2c1CN(C)CC2c1ccccc1` (configuration not stated), 174 °C; in that of `c1cc2c(c(N3CCNCC3)n1)CCO2`, 89.5 °C. Consider `Nc1cc(=O)n(Cc2ccc3ccccc3c2)[nH]1`, for which the melting point fell in the range of 156 to 157 °C. In turn, `O=[N+]([O-])c1ccc(C#CBr)cc1` displayed a melting point of 170 °C. In the case of `CCOC(=O)c1sc2cc(OCc3cccnc3)ccc2c1Sc1ccccc1N(S(C)(=O)=O)S(C)(=O)=O` it was 165 to 167 °C; in that of `CCOC(=O)c1cc(CC)sc1Nc1ccc(C(F)F)cc1[N+](=O)[O-]`, 88 to 90 °C. In the case of `N#CC(C=O)c1ccc(NS(=O)(=O)c2cccc(Cl)c2Cl)cc1` (configuration not stated) it was 88 to 102 °C; in that of `C=CS(=O)(=O)CCC(F)(F)C(F)(F)C(F)(F)C(F)(F)C(F)(F)C(F)(F)C(F)(F)C(F)(F)F`, 96 to 97 °C. In the case of `CCOC(=O)[C@H](CCSCC)NC(=O)C(CSC(C)=O)Cc1ccccc1` (some centres not stated) it was 79 to 84 °C; in that of `NC1CCN(CC23CC(c4ccccc42)c2ccccc23)CC1`, 116 to 119 °C. In turn, `Cc1cc(C)c(N[C@@H](C)C(=O)O)c(C)c1` gave a melting point of 318 to 320 °C. In the case of `COc1cccc2c1SCC(C(=O)O)C2` (configuration not stated) it was 138 to 144 °C; in that of `Cc1cc(Cl)ccc1NC(=O)c1cccc(S(=O)(=O)N(C)c2ccc(Br)cc2)c1`, 163 to 164 °C. The figure for `CCC(OC(C)=O)c1ccc(Cl)c2nc3n(c12)CCCN3c1cnc(N(C)C)cc1C` (configuration not stated) is 159 to 160 °C. In the case of `S=C=NC1(Br)C=Cc2nccnc2C1` (configuration not stated) it was 157 to 158 °C; in that of `CN1CCN(C(=O)CCOC2c3ccccc3C(=O)N2c2ccc3ccc(Cl)nc3n2)CC1` (configuration not stated), 150 °C. Turning to `N#Cc1cncc(OC2SCC(O)C(O)C2O)c1` (configuration not stated), the melting point was 149 °C. In the case of `CCc1cc(C[C@H](NC(=O)c2c(Cl)cccc2Cl)C(=O)O)ccc1-c1ccccc1OC` it was 105 to 107 °C. The figure for `Cc1cc2c(Br)ccc([N+](=O)[O-])c2cn1` is 146 °C. `O=C(O)Cc1ccc(OCc2ccc3oc([N+](=O)[O-])c(-c4ccccc4)c3c2)cc1` displayed a melting point of 179 to 180 °C. In the case of `CN(c1cccc2cc(-c3ncc(CCc4nn[nH]n4)s3)[nH]c12)S(=O)(=O)c1cccs1` it was 211 to 212 °C; in that of `O=S(=O)(c1ccc(Nc2nccc(Nc3ccc(F)cc3)n2)cc1)N(CCN1CCCC1)[C@H]1CC[C@H](O)CC1`, 135 °C; in that of `COc1ccc(CN(C)CCc2ccc(NC(=O)c3cccc4c(=O)c5cccc(SC)c5[nH]c34)cc2)cc1OC`, 190 °C.

Regarding `O=C1CCN(c2cc3c(cc2-c2ccccc2F)NC(=O)CC(c2cccc(-n4ccnc4)c2)=N3)CC1`, the melting point was determined as 230 °C.

`COC(=O)c1cc(C(=O)c2c(C)c(NS(=O)(=O)c3cccc(OC)c3)c3ccccn23)ccc1NC(=O)C(F)(F)F` yielded a melting point of 220 °C. In the case of `Cc1c(Cc2ccccc2)c(=O)oc2cc(OC(C)c3nnn[nH]3)cc(OC(C)c3nnn[nH]3)c12` (configuration not stated) it was 91 to 104 °C. The figure for `Cc1[nH]c(=O)c(C#N)cc1-c1ccc(OCCCC(=O)O)cc1` is 247 to 249 °C. The figure for `CC(C)(C)c1ccc(O)c(C2=CCCCC2)c1` is 90 to 93 °C; for `CCC(C)(C)NCc1nc2sc3c(c2c(-c2ccc(OC)c(OC)c2)c1Cl)CCN(Cc1ccccc1)C3` it is 128 to 129 °C. Molecule `NC(=S)NCCC(O)(c1ccc(F)cc1)c1ccccn1` (configuration not stated) displayed a melting point of 148 to 149 °C. In the case of `C=C(c1ccc(OC)cc1)c1ccc(N(C)C)cc1` it was 124 to 126 °C. The figure for `O=C(O)Cn1c(=O)c(=O)[nH]c2ccc3ccc(-n4ccc(CN5CC=C(c6ccccc6)CC5)c4)cc3c21` is greater than 250 °C; for `O=C(C1=COCCOCCOCCOCCOCCO1)c1cccnc1` it is 98 to 100 °C; for `CCc1c(N)c(C)cc(Cc2cc(C)c(N)c(CC)c2Cl)c1Cl` it is 143 to 148 °C. The figure for `O=C(Nc1ccc(CN2C(=O)[C@H]3CCC[C@H]3Nc3ccccc32)cc1)OCc1ccccc1` (relative stereo) is 162 °C; for `Brc1cc(Br)c2c(c1)CCN2` it is 164 to 165 °C; for `Cc1c2ccccc2c(C)c2cc3c(cc12)C(=O)OC3=O` it is 278 °C.
